Test results taken from patent publication US6572880B2, “Methods and transdermal compositions for pain relief” (priority 1996, dated 2003).
Entries after “also recorded” stand apart in the source; their conditions may differ. Structures can show the parent of a compound that is named as a salt.

Key:
[1] = cited from earlier work
[2] = in vivo
Procedure: A dosage of 40 mg per day was self-administered by a patient by application to the skin, for a period of at least 1 hour.
Sertraline (Zoloft) gel was prepared, according to the procedures of example 9. A dosage of 100 mg per day was self-administered by a patient by application to the skin, for a period of at least 1 hour.
A dosage of 20 mg per day was self-administered by a patient by application to the skin, for a period of at least 1 hour.
Carbamazepine (Tegretol) gel was prepared, according to the procedures of example 4. A dosage of 400 mg per day was self-administered by a patient by application to the skin, for a period of at least 1 hour.
(§1) Carbamazepine (Tegretol) gel was prepared, according to the procedures of example 4. A dosage of 200 mg per day was self-administered by a patient by application to the skin, for a period of at least 1 hour.
Sertraline (Zoloft) gel was prepared, according to the procedures of example 9. A dosage of 50 mg per day was self-administered by a patient by application to the skin, for a period of at least 1 hour.
as §1
A dosage of 100 mg per day was selfadministered by a patient by application to the skin, for a period of at least 1 hour.
A dosage of 80-160 mg per day was self administered by a person by application to the skin, for a period of at least 1 hour. […] The dosage was then increased to 160 mg per day and administered by the same method.
A dosage of 80-160 mg/day was self administered by a person by application to the skin, for a period of at least 1 hour. […] The dosage was then increased to 160 mg per day and administered by the same method.
A dosage of 500-1000 mg was self administered by two male patients. Administration was by application to the skin, for a period of at least one hour.

[3] = patient-reported pain relief after transdermal application to site of pain; assay type: in vivo, human; conditions: for overall assessment of pain relief when administered transdermally: conclusion from the patient results
Description: Compositions according the examples 45 through 47, 53, 55 were transdermally applied to numerous patients, for the purpose of treating pain including as described in other examples herein, with the results summarized in Table I below.

[4] = blood serum; cited from earlier work
[5] = skin irritation and side effects reported on transdermal administration; assay type: in vivo, human; conditions: for overall assessment of side effects when administered transdermally: conclusion from the patient results
Procedure: Preferably, a gel preparation is applied to the skin at the site or sites of pain. Patients can be evaluated by means of a structured evaluation form, e.g., completed at a frequency of at least one time per week. Evaluation of patients are for the present symptoms as well as any side effects from currently administered medications. This makes it possible to note changes on an ongoing basis.
Patients in the examples above were evaluated by means of a structured evaluation form depicted in FIG. 1, which was completed at a frequency of at least one time per week for each patient receiving transdermal medication according to the present invention. The patients were evaluated both for all present psychiatric symptoms as well as any side effects from currently-administered medications.

[6] = summary of Table I, best result per patient

## CC(NC(C)(C)C)C(=O)c1cccc(Cl)c1 (centres unmarked) [Buproprion]
[1]
  solubility in water: highly soluble
[2]
  transdermal absorption as judged from blood level: poor or equivocal absorptions and results

## NC(=O)N1c2ccccc2C=Cc2ccccc21 [Carbamazepine]
[1]
  solubility in alcohol and in acetone: soluble
  solubility in water: practically insoluble
[3]
  overall assessment of pain relief when administered transdermally: positive effects
[4]
  typical therapeutic levels / therapeutic reference range: 4 to 10 µg/mL
[2]
  transdermal absorption as judged from blood level: good absorption
[5]
  overall assessment of side effects when administered transdermally: appears to cause a rash in at least some patients

## CNCCC(Oc1ccc(C(F)(F)F)cc1)c1ccccc1 (centres unmarked) [Fluoxetine hydrochloride]
[4]
  typical reference levels: 50 to 480 ng/mL

## NCC1(CC(=O)O)CCCCC1 [Gabapentin]
[5]
  overall assessment of side effects when administered transdermally: free of side effects

## COc1ccccc1OCC(O)CO (centres unmarked) [Guaifenesin]
[3]
  overall assessment of pain relief when administered transdermally: benefit as an adjunctive treatment, of painful spasticity

## Fc1ccc([C@@H]2CCNC[C@H]2COc2ccc3c(c2)OCO3)cc1 [Paroxetine hydrochloride]
[4]
  typical reference levels: 49 ± 26 ng/mL

## CN[C@H]1CC[C@@H](c2ccc(Cl)c(Cl)c2)c2ccccc21 [Sertraline hydrochloride]
[1]
  solubility in ethanol: sparingly soluble
  solubility in isopropyl alcohol: slightly soluble
  solubility in water: slightly soluble
[4]
  typical reference levels: 30 to 200 ng/mL
[2]
  transdermal absorption as judged from blood level: do not appear to be absorbed well or reliably

## CCCC(CCC)C(=O)O [Valproic acid]
[4]
  typical therapeutic levels / therapeutic reference range: 50 to 150 µg/mL
[2]
  transdermal absorption as judged from blood level: do not appear to be absorbed well or reliably
[5]; application to the skin
  skin irritation: appears to cause skin irritation in some patients

## CN(C)CCC=C1c2ccccc2CCc2ccccc21 [amitriptyline]
[3]
  overall assessment of pain relief when administered transdermally: limited pain relief

## CN(C)CCC=C1c2ccccc2COc2ccccc21 [doxepin]
[3]
  overall assessment of pain relief when administered transdermally: effective pain relief medication
[3]; listed as Doxepin
  overall assessment of pain relief when administered transdermally: about three times the positive response rate; also recorded: substantially more effective than amitriptyline
[3]; [6]
  percent reported pain relief: Major: 23.1%
  percent reported pain relief: Mild: 7.7%
  percent reported pain relief: Mild-moderate: 7.7%
  percent reported pain relief: Total: 7.7%
  percent reported pain relief: moderate: 53.8%
[5]
  overall assessment of side effects when administered transdermally: substantially free of side effects
